The results in this text go back to US20010049373A1, “Materials and methods for killing nematodes and nematode eggs” (priority 2000, published 2001).

Where “and” joins values, the source holds several entries; their conditions need not be identical. Equal values may be shown once.

Test [1] concerns gastrointestinal nematodes. Put plainly: Sheep Test I: nematode recovery at necropsy, controlled anthelmintic test efficacy. It counts as in vivo. To be noted: for Mean Ct, Abomasum Haemonchus / Mean Ct, Abomasum ostertagia / Mean Ct, Small Intest. Nematodirus / Mean Ct, Small Intestine Trichostrongylus: group mean; for Mean Ct, Abomasum Haemonchus / Mean Ct, Abomasum ostertagia / Mean Ct, Small Intest. Nematodirus / Mean Ct, Small Intestine Trichostrongylus / Worm Counts, Abomasum Haemonchus / Worm Counts, Abomasum ostertagia / Worm Counts, Small Intest. Nematodirus / Worm Counts, Small Intestine Trichostrongylus: necropsy seven days following treatment; for Worm Counts, Abomasum Haemonchus / Worm Counts, Abomasum ostertagia / Worm Counts, Small Intest. Nematodirus / Worm Counts, Small Intestine Trichostrongylus: individual sheep. The protocol: Sheep naturally infected with a variety of gastrointestinal nematodes are purchased from local sources and are transported to the test site. The animals are housed in a manner to preclude further infection by nematode larvae. The animals are evaluated for the presence of adequate nematode burdens by performing a standard fecal egg per gram (EPG) count. Eggs are differentiated into the following groups: trichostrongyle (strongyle), Strongyloides, Trichuris, or Nematodinis. Only sheep judged by the study parasitologist to have adequate nematode infections are retained as test subjects. The sheep are fed good quality hay (no concentrated rations) and water ad libitum. Following a five-day acclimation period, the sheep are randomly assigned by EPG count into treatment groups which include non-treated Negative control (placebo); […] The first replicate of 10 animals is randomly assigned to groups 1-10; the second replicate of 10 animals is randomly assigned to groups 1-10; and the third replicate of 10 animals is randomly assigned to groups 1-10. Thus 10 groups of 3 animals each is created. The placebo (DMSO), the commercially available drug, and the test anthelmintic compounds are administered in a 3 ml volume by subcutaneous injection using a sterile syringe fitted with a proper needle. The animal is adequately immobilized for injection of the placebo, commercially available drug, or test anthelmintic compound. Seven days following treatment the sheep are humanely slaughtered in accordance with the Guide for the Care and Use of Laboratory Animals (DHEW Publication No. 86-23). Necropsy procedures are according to Zimmerman Research SOP # […].99.01, Necropsy for Helminth Recovery, specifically for gastrointestinal nematodes. Fecal samples are taken for EPG counts during the sample collection process on this day. All animals are necropsied, but only the animals from the experimental treatment groups that have a significant egg count reduction on day 5 or day 7 will have intestinal material collected for nematode recovery and identification. Nematodes are recovered, identified, and enumerated according to Zimmerman Research SOP # […].99.01. All individuals performing nematode recoveries are blinded to treatment versus control animals. Preliminary estimates of total nematodes recovered from each gut sample are provided prior to identification and enumerations by the study parasitologist. At the discretion of the study parasitologist, seven days after the drug administration fecal egg counts are performed and all animals showing 90% or better trichostrongylid egg reduction will be slaughtered using humane methods recommended by the AVMA. The neck blood vessels are severed and after the animal is completely exsanguinated, the abdomen are opened. The abomasum, the small and large intestines are tied at the omasal and pyloric openings, the duodenum, the end of the small intestine and at the end of the large intestine. Each section is transferred in a separate bucket containing warm water and is slit open and thoroughly washed. The epithelium is inspected before it is removed. The thus prepared washings are saved in gallon jars. An appropriate preservative is added. If preservative is not available, all the intestinal washing should kept in a refrigerator. These washings are passed through a 100-mesh sieve (pore size […]), and the residue is examined for the presence of worms under a dissecting microscope, Lugol's solution may be used to stain the worms. All worms are picked up counted and identified as to the species. An effort should be made to recover any immature forms present.

Test [2] has as its system gastrointestinal nematodes (trichostrongyle, Strongyloides, Trichuris, Nematodirus eggs). The test can be described thus: Sheep Test I: fecal egg per gram (EPG) counts. It counts as in vivo. The note with it: for % Change, Strongyles EPG-5 day vs EPG-pre, Total/Mean / Strongyles EPG-5 day (22-Jan), Total/Mean / % Change, Strongyles EPG-7 day vs EPG-pre, Total/Mean / Strongyles EPG-7 day (24-Jan), Total/Mean: group mean; for % Change, Strongyles EPG-5 day vs EPG-pre, Total/Mean / Strongyles EPG-5 day (22-Jan), Total/Mean / Strongyles EPG-5 day (22-Jan): 5 days after treatment; for % Change, Strongyles EPG-7 day vs EPG-pre, Total/Mean / Strongyles EPG-7 day (24-Jan), Total/Mean / % Change, Strongyles EPG-7 day vs EPG-pre / Strongyles EPG-7 day (24-Jan): 7 days after treatment; for Strongyles EPG-5 day (22-Jan) / % Change, Strongyles EPG-7 day vs EPG-pre / Strongyles EPG-7 day (24-Jan): individual sheep. The protocol: Sheep naturally infected with a variety of gastrointestinal nematodes are purchased from local sources and are transported to the test site. The animals are housed in a manner to preclude further infection by nematode larvae. The animals are evaluated for the presence of adequate nematode burdens by performing a standard fecal egg per gram (EPG) count. Eggs are differentiated into the following groups: trichostrongyle (strongyle), Strongyloides, Trichuris, or Nematodinis. Only sheep judged by the study parasitologist to have adequate nematode infections are retained as test subjects.
The sheep are fed good quality hay (no concentrated rations) and water ad libitum. Following a five-day acclimation period, the sheep are randomly assigned by EPG count into treatment groups which include non-treated Negative control (placebo); Positive Control (commercially available ivermectin for sheep): and various anthelmintic compounds of the present invention (test compound) dissolved in DMSO. The first replicate of 10 animals is randomly assigned to groups 1-10; the second replicate of 10 animals is randomly assigned to groups 1-10; and the third replicate of 10 animals is randomly assigned to groups 1-10. Thus 10 groups of 3 animals each is created.
The randomization is performed on fecal samples collected 24-48 hours prior to scheduled treatment. The EPG counts are performed according to Zimmerman Research SOP # NMEPG.99.01
On treatment day, the animals are weighed and divided into groups with three animals per group as follows:
The placebo (DMSO), the commercially available drug, and the test anthelmintic compounds are administered in a 3 ml volume by subcutaneous injection using a sterile syringe fitted with a proper needle. The animal is adequately immobilized for injection of the placebo, commercially available drug, or test anthelmintic compound.
Following treatment, the animals are observed at hourly intervals for the first 8 hours, then daily until necropsy. They will continue to be housed in a manner to prevent further nematode infections. Fecal samples are taken for EPG counts on the 5th day and 7th day after treatment.
Seven days following treatment the sheep are humanely slaughtered in accordance with the Guide for the Care and Use of Laboratory Animals (DHEW Publication No. 86-23). Necropsy procedures are according to Zimmerman Research SOP # NCRGIH.99.01, Necropsy for Helminth Recovery, specifically for gastrointestinal nematodes. Fecal samples are taken for EPG counts during the sample collection process on this day. All animals are necropsied, but only the animals from the experimental treatment groups that have a significant egg count reduction on day 5 or day 7 will have intestinal material collected for nematode recovery and identification.

Setting [3] is: Ivermectin 200 mcg/kg, vs negative control mean count.
Setting [4] is: AKC 109 1.4 mg/kg, vs negative control mean count.

With 22,23-dihydroavermectin B1 [ivermectin], in test [1] (setting [3]), the “% Efficacy, Abomasum Haemonchus” value worked out at 100%; the “% Efficacy, Abomasum ostertagia” value stood at 100%; the “% Efficacy, Small Intest. Nematodirus” value is reported as 100%; the “% Efficacy, Small Intestine Trichostrongylus” value is 100%. In test [1] (Ivermectin 200 mcg/kg), the “Mean Ct, Abomasum Haemonchus” value was 0; the “Mean Ct, Abomasum ostertagia” value is recorded as 0; the “Mean Ct, Small Intest. Nematodirus” value is reported as 0; the “Mean Ct, Small Intestine Trichostrongylus” value was 0. In test [1] (Ivermectin 200 mcg/kg), the “Worm Counts, Abomasum Haemonchus” value was found to be 0; the “Worm Counts, Abomasum ostertagia” value is recorded as 0; the “Worm Counts, Small Intest. Nematodirus” value amounted to 0; the “Worm Counts, Small Intestine Trichostrongylus” value is 0. Also, in test [2] (Ivermectin .2 mg/kg), the “% Change, Strongyles EPG-5 day vs EPG-pre, Total/Mean” value is recorded as 99.62%; the “Strongyles EPG-5 day (22-Jan), Total/Mean” value worked out at 3.33 EPG; the “% Change, Strongyles EPG-7 day vs EPG-pre, Total/Mean” value is reported as 100.00%; the “Strongyles EPG-7 day (24-Jan), Total/Mean” value is on record as 0.00 EPG. In addition, in test [2] (Ivermectin .2 mg/kg), the “Strongyles EPG-5 day (22-Jan)” value was 10 EPG and 0 EPG (2×); the “% Change, Strongyles EPG-7 day vs EPG-pre” value was 100.00%; the “Strongyles EPG-7 day (24-Jan)” value was found to be 0 EPG.
As for `CCC1CCCCN1c1cc(Oc2ccc3oc4ccccc4c3c2)ncn1` (stereo not drawn) [AKC 109], in test [1] (setting [4]), the “% Efficacy, Abomasum ostertagia” value was determined as 98% and the “% Efficacy, Small Intest. Nematodirus” value was found to be 57%. Also, in test [1] (AKC 109 1.4 mg/kg), the “Mean Ct, Abomasum Haemonchus” value turned out to be 507; the “Mean Ct, Abomasum ostertagia” value was found to be 7; the “Mean Ct, Small Intest. Nematodirus” value stood at 353; the “Mean Ct, Small Intestine Trichostrongylus” value worked out at 233. Also, in test [1] (AKC 109 1.4 mg/kg, 1.4 mg/kg), the “Worm Counts, Abomasum Haemonchus” value was 20 and 1500 and 0; the “Worm Counts, Abomasum ostertagia” value was 20 and 0 (2×); the “Worm Counts, Small Intest. Nematodirus” value was 100 and 500 and 460; the “Worm Counts, Small Intestine Trichostrongylus” value was 540 and 160 and 0. Moreover, in test [2] (AKC 109 1.4 mg/kg), the “% Change, Strongyles EPG-5 day vs EPG-pre, Total/Mean” value turned out to be 76.43%; the “Strongyles EPG-5 day (22-Jan), Total/Mean” value came out at 206.67 EPG; the “% Change, Strongyles EPG-7 day vs EPG-pre, Total/Mean” value was 85.55%; the “Strongyles EPG-7 day (24-Jan), Total/Mean” value is on record as 126.67 EPG. In test [2] (AKC 109 1.4 mg/kg, 1.4 mg/kg), the “Strongyles EPG-5 day (22-Jan)” value is 30 EPG and 590 EPG and 0 EPG; the “% Change, Strongyles EPG-7 day vs EPG-pre” value was 84.30% and −195.00% and 100.00%; the “Strongyles EPG-7 day (24-Jan)” value was 380 EPG and 0 EPG.
